This passage reports Ki results from ChEMBL document CHEMBL5442175, “EUbOPEN Chemogenomics Library - PDSP Secondary Binding” (2024).

Assay [1] addresses 5-hydroxytryptamine receptor 1D (Homo sapiens, UniProt P28221). The assay is described as follows: PDSP Secondary Binding target: HTR1D - Compounds are tested at 10 uM concentration, plate are incubated at room temperature in the dark for 90 minutes. Reaction are stopped by vacuum filtration onto 0.3% polyethyleneimine soaked filter mats using Filtermate harvester. Scintillation cocktail is then melted onto microwave-dried filters on a hot plate and the radio activity is counted in Microbia counter.

Assay [2] has as its target Kappa-type opioid receptor (Homo sapiens, UniProt P41145). The assay is described as follows: PDSP Secondary Binding target: OPRK1 - Compounds are tested at 10 uM concentration, plate are incubated at room temperature in the dark for 90 minutes. Reaction are stopped by vacuum filtration onto 0.3% polyethyleneimine soaked filter mats using Filtermate harvester. Scintillation cocktail is then melted onto microwave-dried filters on a hot plate and the radio activity is counted in Microbia counter.

For assay [3], the target named is Sigma non-opioid intracellular receptor 1 (Homo sapiens, UniProt Q99720). The experiment in a line: PDSP Secondary Binding target: SIGMAR1 - Compounds are tested at 10 uM concentration, plate are incubated at room temperature in the dark for 90 minutes. Reaction are stopped by vacuum filtration onto 0.3% polyethyleneimine soaked filter mats using Filtermate harvester. Scintillation cocktail is then melted onto microwave-dried filters on a hot plate and the radio activity is counted in Microbia counter.

Assay [4] has as its target 5-hydroxytryptamine receptor 1E (Homo sapiens, UniProt P28566). The experiment in a line: PDSP Secondary Binding target: HTR1E - Compounds are tested at 10 uM concentration, plate are incubated at room temperature in the dark for 90 minutes. Reaction are stopped by vacuum filtration onto 0.3% polyethyleneimine soaked filter mats using Filtermate harvester. Scintillation cocktail is then melted onto microwave-dried filters on a hot plate and the radio activity is counted in Microbia counter.

Assay [5] addresses D(1B) dopamine receptor (Homo sapiens, UniProt P21918). The experiment in a line: PDSP Secondary Binding target: DRD5 - Compounds are tested at 10 uM concentration, plate are incubated at room temperature in the dark for 90 minutes. Reaction are stopped by vacuum filtration onto 0.3% polyethyleneimine soaked filter mats using Filtermate harvester. Scintillation cocktail is then melted onto microwave-dried filters on a hot plate and the radio activity is counted in Microbia counter.

For assay [6], the target named is T1, Muscarinic acetylcholine receptor M5 (Homo sapiens, UniProt P08912).
T1 sequence (P08912 whole entry): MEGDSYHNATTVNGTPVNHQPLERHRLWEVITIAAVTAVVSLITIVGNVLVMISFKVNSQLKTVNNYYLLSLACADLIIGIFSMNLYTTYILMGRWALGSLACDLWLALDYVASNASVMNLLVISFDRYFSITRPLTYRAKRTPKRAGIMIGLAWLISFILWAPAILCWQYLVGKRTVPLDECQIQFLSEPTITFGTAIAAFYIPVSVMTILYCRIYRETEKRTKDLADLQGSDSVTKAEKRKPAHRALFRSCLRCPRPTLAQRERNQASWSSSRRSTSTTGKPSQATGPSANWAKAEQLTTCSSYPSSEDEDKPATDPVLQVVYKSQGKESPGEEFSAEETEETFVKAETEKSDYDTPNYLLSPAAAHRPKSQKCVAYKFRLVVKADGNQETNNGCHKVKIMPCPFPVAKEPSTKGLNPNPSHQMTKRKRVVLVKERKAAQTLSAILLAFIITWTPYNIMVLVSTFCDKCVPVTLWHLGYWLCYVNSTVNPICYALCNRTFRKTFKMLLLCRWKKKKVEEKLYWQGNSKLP
The experiment in a line: PDSP Secondary Binding target: CHRM5 - Compounds are tested at 10 uM concentration, plate are incubated at room temperature in the dark for 90 minutes. Reaction are stopped by vacuum filtration onto 0.3% polyethyleneimine soaked filter mats using Filtermate harvester. Scintillation cocktail is then melted onto microwave-dried filters on a hot plate and the radio activity is counted in Microbia counter.

Assay [7] has as its target 5-hydroxytryptamine receptor 7 (Homo sapiens, UniProt P34969). The assay is described as follows: PDSP Secondary Binding target: HTR7 - Compounds are tested at 10 uM concentration, plate are incubated at room temperature in the dark for 90 minutes. Reaction are stopped by vacuum filtration onto 0.3% polyethyleneimine soaked filter mats using Filtermate harvester. Scintillation cocktail is then melted onto microwave-dried filters on a hot plate and the radio activity is counted in Microbia counter.

The target of assay [8] is Sigma intracellular receptor 2 (Homo sapiens, UniProt Q5BJF2). The experiment in a line: PDSP Secondary Binding target: TMEM97 - Compounds are tested at 10 uM concentration, plate are incubated at room temperature in the dark for 90 minutes. Reaction are stopped by vacuum filtration onto 0.3% polyethyleneimine soaked filter mats using Filtermate harvester. Scintillation cocktail is then melted onto microwave-dried filters on a hot plate and the radio activity is counted in Microbia counter.

The target of assay [9] is T2, 5-hydroxytryptamine receptor 1A (Homo sapiens, UniProt P08908).
T2 sequence (P08908 whole entry): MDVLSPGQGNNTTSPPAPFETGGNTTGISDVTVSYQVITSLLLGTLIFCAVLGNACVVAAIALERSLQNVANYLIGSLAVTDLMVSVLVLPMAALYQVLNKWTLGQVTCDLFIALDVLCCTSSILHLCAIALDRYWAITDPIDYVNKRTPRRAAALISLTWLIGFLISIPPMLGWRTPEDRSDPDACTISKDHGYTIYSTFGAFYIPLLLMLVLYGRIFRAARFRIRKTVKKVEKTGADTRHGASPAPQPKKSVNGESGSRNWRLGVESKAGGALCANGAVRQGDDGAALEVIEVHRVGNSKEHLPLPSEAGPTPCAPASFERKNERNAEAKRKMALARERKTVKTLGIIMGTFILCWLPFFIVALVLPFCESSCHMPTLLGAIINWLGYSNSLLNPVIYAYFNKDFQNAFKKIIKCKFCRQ
The assay is described as follows: PDSP Secondary Binding target: HTR1A - Compounds are tested at 10 uM concentration, plate are incubated at room temperature in the dark for 90 minutes. Reaction are stopped by vacuum filtration onto 0.3% polyethyleneimine soaked filter mats using Filtermate harvester. Scintillation cocktail is then melted onto microwave-dried filters on a hot plate and the radio activity is counted in Microbia counter.

For assay [10], the target named is D(2) dopamine receptor (Homo sapiens, UniProt P14416). The experiment in a line: PDSP Secondary Binding target: DRD2 - Compounds are tested at 10 uM concentration, plate are incubated at room temperature in the dark for 90 minutes. Reaction are stopped by vacuum filtration onto 0.3% polyethyleneimine soaked filter mats using Filtermate harvester. Scintillation cocktail is then melted onto microwave-dried filters on a hot plate and the radio activity is counted in Microbia counter.

Assay [11] has as its target Mu-type opioid receptor (Homo sapiens, UniProt P35372). The experiment in a line: PDSP Secondary Binding target: OPRM1 - Compounds are tested at 10 uM concentration, plate are incubated at room temperature in the dark for 90 minutes. Reaction are stopped by vacuum filtration onto 0.3% polyethyleneimine soaked filter mats using Filtermate harvester. Scintillation cocktail is then melted onto microwave-dried filters on a hot plate and the radio activity is counted in Microbia counter.

For assay [12], the target named is T3, D(4) dopamine receptor (Homo sapiens, UniProt P21917).
T3 sequence (P21917 whole entry): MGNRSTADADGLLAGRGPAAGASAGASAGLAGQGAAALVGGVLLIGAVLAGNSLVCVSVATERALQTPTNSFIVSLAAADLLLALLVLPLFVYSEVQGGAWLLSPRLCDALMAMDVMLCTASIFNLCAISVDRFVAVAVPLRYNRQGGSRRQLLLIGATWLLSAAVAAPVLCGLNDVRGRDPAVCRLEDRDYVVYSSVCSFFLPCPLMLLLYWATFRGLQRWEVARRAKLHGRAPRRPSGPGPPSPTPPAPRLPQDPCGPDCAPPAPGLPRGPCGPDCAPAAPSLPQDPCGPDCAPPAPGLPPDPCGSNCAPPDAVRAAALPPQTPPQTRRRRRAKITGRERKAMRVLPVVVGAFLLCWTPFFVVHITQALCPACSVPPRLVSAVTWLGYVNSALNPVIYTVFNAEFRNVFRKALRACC
The experiment in a line: PDSP Secondary Binding target: DRD4 - Compounds are tested at 10 uM concentration, plate are incubated at room temperature in the dark for 90 minutes. Reaction are stopped by vacuum filtration onto 0.3% polyethyleneimine soaked filter mats using Filtermate harvester. Scintillation cocktail is then melted onto microwave-dried filters on a hot plate and the radio activity is counted in Microbia counter.

Assay [13] concerns the target T4, Alpha-1B adrenergic receptor (Homo sapiens, UniProt P35368).
T4 sequence (P35368 whole entry): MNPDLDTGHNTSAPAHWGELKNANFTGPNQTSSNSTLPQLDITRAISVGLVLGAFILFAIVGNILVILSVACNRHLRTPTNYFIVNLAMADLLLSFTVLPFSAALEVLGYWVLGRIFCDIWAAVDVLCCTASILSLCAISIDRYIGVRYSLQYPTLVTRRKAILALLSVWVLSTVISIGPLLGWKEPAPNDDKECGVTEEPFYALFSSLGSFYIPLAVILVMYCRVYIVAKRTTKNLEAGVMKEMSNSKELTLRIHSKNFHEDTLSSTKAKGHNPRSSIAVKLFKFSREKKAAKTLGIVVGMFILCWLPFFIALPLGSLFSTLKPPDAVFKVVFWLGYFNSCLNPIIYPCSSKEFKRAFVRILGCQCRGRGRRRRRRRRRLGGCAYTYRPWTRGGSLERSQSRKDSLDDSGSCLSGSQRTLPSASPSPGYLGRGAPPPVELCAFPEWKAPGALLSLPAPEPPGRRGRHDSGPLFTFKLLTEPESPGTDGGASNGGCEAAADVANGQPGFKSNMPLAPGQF
The experiment in a line: PDSP Secondary Binding target: ADRA1B - Compounds are tested at 10 uM concentration, plate are incubated at room temperature in the dark for 90 minutes. Reaction are stopped by vacuum filtration onto 0.3% polyethyleneimine soaked filter mats using Filtermate harvester. Scintillation cocktail is then melted onto microwave-dried filters on a hot plate and the radio activity is counted in Microbia counter.

Assay [14] has as its target T5, Alpha-2C adrenergic receptor (Homo sapiens, UniProt P18825).
T5 sequence (P18825 whole entry): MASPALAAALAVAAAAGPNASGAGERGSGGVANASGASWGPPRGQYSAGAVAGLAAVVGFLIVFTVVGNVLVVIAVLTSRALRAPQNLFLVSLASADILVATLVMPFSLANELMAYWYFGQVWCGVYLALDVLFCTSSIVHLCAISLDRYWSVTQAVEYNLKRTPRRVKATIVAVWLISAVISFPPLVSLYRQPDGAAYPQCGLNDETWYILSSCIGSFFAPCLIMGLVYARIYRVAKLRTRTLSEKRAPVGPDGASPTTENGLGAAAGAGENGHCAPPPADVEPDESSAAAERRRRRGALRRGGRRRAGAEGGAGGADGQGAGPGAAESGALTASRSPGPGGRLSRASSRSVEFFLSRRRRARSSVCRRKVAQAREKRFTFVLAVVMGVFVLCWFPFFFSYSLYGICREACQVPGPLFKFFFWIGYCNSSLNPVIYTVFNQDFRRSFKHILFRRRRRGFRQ
The assay is described as follows: PDSP Secondary Binding target: ADRA2C - Compounds are tested at 10 uM concentration, plate are incubated at room temperature in the dark for 90 minutes. Reaction are stopped by vacuum filtration onto 0.3% polyethyleneimine soaked filter mats using Filtermate harvester. Scintillation cocktail is then melted onto microwave-dried filters on a hot plate and the radio activity is counted in Microbia counter.

In assay [15] the target is Histamine H3 receptor (Homo sapiens, UniProt Q9Y5N1). The assay is described as follows: PDSP Secondary Binding target: HRH3 - Compounds are tested at 10 uM concentration, plate are incubated at room temperature in the dark for 90 minutes. Reaction are stopped by vacuum filtration onto 0.3% polyethyleneimine soaked filter mats using Filtermate harvester. Scintillation cocktail is then melted onto microwave-dried filters on a hot plate and the radio activity is counted in Microbia counter.

Assay [16] addresses T6, Muscarinic acetylcholine receptor M2 (Homo sapiens, UniProt P08172).
T6 sequence (P08172 whole entry): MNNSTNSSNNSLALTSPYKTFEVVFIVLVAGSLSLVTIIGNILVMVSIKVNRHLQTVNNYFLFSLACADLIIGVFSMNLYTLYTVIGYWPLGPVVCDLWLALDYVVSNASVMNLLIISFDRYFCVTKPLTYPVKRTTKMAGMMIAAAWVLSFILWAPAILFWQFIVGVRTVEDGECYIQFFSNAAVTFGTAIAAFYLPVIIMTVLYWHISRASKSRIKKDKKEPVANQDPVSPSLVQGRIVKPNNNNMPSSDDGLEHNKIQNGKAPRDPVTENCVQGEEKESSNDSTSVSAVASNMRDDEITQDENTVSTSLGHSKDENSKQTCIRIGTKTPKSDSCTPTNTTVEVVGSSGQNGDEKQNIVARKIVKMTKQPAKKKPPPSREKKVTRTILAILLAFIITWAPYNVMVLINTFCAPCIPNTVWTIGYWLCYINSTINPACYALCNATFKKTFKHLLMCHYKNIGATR
The assay is described as follows: PDSP Secondary Binding target: CHRM2 - Compounds are tested at 10 uM concentration, plate are incubated at room temperature in the dark for 90 minutes. Reaction are stopped by vacuum filtration onto 0.3% polyethyleneimine soaked filter mats using Filtermate harvester. Scintillation cocktail is then melted onto microwave-dried filters on a hot plate and the radio activity is counted in Microbia counter.

Sigma intracellular receptor 2, sequence (Q5BJF2 whole entry): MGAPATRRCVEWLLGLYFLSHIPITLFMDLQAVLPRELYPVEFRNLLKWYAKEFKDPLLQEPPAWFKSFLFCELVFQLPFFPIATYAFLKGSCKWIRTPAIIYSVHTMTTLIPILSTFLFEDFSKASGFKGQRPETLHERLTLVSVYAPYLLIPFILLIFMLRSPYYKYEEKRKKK
Histamine H3 receptor, sequence (Q9Y5N1 whole entry): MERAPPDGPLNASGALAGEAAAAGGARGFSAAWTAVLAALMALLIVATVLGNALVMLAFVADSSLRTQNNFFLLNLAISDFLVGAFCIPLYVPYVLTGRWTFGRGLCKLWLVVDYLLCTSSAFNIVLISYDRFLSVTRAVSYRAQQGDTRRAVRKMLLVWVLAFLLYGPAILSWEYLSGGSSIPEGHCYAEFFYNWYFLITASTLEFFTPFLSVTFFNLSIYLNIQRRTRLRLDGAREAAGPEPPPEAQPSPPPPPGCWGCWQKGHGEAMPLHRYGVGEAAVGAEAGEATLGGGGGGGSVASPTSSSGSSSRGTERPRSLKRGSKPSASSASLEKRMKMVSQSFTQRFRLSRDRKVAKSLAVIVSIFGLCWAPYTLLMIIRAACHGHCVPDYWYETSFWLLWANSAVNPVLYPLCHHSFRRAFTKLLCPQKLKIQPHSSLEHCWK
Sigma non-opioid intracellular receptor 1, sequence (Q99720 whole entry): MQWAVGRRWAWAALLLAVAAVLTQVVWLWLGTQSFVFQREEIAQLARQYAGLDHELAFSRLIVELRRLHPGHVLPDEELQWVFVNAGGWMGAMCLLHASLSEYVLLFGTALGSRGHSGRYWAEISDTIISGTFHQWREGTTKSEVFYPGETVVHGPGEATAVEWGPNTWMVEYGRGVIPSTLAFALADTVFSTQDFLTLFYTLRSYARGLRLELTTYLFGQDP
Kappa-type opioid receptor, sequence (P41145 whole entry): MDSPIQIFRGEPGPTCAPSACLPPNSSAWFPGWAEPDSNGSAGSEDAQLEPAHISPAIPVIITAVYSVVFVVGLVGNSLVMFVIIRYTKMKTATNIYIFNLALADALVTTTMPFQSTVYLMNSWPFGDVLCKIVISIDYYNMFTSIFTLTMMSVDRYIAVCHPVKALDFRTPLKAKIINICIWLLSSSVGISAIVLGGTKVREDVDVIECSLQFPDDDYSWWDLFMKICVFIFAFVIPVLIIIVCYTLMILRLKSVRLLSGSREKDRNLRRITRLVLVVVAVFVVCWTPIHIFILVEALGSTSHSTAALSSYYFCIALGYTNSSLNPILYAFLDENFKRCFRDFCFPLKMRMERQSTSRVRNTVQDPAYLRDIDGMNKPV
5-hydroxytryptamine receptor 1E, sequence (P28566 whole entry): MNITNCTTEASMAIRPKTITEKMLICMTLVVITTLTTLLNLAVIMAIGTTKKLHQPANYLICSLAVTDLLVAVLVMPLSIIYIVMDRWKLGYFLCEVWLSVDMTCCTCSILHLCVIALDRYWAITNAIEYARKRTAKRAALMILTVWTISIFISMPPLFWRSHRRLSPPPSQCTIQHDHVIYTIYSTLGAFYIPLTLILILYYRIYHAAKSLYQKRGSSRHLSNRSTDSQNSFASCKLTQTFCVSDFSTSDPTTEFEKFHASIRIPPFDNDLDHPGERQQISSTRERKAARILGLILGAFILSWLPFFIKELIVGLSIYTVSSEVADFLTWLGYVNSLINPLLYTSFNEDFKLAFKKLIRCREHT
D(1B) dopamine receptor, sequence (P21918 whole entry): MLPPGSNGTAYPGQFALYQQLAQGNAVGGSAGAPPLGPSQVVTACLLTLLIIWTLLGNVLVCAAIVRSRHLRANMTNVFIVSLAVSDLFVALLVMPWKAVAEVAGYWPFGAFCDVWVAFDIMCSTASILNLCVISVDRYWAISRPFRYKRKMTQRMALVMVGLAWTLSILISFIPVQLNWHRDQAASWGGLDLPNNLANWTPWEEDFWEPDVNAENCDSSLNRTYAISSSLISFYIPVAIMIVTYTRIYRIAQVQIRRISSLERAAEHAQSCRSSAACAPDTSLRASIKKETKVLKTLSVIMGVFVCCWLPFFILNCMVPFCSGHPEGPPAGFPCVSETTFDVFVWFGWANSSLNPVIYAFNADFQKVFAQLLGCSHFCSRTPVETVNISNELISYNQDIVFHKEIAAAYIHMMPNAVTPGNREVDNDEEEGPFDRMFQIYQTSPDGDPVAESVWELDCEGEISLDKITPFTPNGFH
D(2) dopamine receptor, sequence (P14416 whole entry): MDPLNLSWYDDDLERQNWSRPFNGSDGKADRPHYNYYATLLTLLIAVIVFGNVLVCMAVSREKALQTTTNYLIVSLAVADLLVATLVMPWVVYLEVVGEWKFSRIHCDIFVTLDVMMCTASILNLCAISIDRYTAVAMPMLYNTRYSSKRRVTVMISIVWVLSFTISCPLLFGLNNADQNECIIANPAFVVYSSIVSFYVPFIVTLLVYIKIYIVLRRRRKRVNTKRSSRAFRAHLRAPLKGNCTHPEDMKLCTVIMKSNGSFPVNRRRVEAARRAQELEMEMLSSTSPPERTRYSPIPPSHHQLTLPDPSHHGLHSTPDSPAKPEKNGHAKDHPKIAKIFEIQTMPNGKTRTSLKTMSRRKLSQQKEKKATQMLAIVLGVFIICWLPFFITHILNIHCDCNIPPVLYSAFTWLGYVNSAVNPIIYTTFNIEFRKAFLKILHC
Mu-type opioid receptor, sequence (P35372 whole entry): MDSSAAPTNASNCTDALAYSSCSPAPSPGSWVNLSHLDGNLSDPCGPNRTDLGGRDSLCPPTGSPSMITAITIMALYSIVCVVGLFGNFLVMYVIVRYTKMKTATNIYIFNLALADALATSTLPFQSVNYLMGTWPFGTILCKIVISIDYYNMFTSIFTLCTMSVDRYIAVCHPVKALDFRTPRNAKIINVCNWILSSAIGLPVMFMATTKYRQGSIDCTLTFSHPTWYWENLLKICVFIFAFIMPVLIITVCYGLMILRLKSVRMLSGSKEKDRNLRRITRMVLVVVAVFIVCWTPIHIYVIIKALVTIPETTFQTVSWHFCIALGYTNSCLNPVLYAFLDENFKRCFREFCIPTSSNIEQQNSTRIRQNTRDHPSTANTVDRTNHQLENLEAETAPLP
5-hydroxytryptamine receptor 7, sequence (P34969 whole entry): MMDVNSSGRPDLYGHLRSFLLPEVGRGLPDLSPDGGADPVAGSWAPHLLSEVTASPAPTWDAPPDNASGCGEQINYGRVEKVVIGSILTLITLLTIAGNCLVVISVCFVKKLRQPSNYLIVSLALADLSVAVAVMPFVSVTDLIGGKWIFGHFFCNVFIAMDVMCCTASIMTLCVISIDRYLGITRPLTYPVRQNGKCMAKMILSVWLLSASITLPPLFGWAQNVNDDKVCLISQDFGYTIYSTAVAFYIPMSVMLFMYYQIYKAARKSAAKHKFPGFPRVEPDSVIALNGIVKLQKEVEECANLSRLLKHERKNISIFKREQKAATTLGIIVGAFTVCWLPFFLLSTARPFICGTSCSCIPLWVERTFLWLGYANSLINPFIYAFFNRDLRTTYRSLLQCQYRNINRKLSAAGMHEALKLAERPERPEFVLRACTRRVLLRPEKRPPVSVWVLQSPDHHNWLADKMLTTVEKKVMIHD
5-hydroxytryptamine receptor 1D, sequence (P28221 whole entry): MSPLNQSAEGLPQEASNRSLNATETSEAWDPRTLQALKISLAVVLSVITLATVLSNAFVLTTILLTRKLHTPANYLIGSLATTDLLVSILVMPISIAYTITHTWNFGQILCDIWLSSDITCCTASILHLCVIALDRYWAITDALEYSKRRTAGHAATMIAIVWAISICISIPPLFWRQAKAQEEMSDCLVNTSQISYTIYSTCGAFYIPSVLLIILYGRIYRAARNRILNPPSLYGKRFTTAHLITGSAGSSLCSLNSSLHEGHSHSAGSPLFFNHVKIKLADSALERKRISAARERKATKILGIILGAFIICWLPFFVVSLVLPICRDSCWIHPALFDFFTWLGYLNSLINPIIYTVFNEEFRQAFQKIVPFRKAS

On to `CN1CCC(C(=O)c2cccc(NC(=O)c3c(F)cc(F)cc3F)n2)CC1`, for which the Ki (commonly the dissociation constant of the complex between target and ligand, obtained from inhibition or displacement) in assay [1] worked out at 869 nM; in [2], 357 nM; in assay [3], 3130 nM; in assay [4] it was 127 nM; in assay [5], 253 nM; in [6], 632 nM. The Ki was determined as 5410 nM in assay [7] and 184 nM in assay [8].
Consider `CN[C@@H]1CCc2[nH]c3ccc(C(N)=O)cc3c2C1` [FROVATRIPTAN SUCCINATE], for which the Ki in [9] is 1470 nM; in assay [10] it was 694 nM; in [11] it was 187 nM; in [4], 311 nM; in assay [12], 909 nM; in [13], above 10000 nM. The Ki in assay [8] was determined as 3260 nM.
Turning to `COc1ccc2cc(S(=O)(=O)N[C@H](CC(=O)N[C@H](Cc3ccc(CN4[C@H](C)CCC[C@@H]4C)cc3)C(=O)N(C)C(C)C)c3ccc4c(c3)OCO4)ccc2c1`, the Ki in assay [14] is 1260 nM; in [2], 195 nM; in assay [3] it was 495 nM; in assay [15], 645 nM; in assay [6], 841 nM; in assay [16] it was 528 nM. Moreover, in [8], the Ki amounted to 63.4 nM.
In [15], `c1nc(CC2CCNCC2)c[nH]1` came in with a Ki of 0.63 nM.
